# Test results from US20250269050A1, “CYCLIC DICHALCOGENIDE ADC LINKER UNITS AND USES THEREOF” (priority 2024, published 2025).
# How the values were obtained:
# [1] = In vivo pharmacokinetics experiment in mice (intact immunoconjugate in plasma, MS-based); settings: single 7 mg/kg intravenous injection, plasma up to 380 h, FIG. 3
# Procedure: Mice are maintained in individually ventilated cages at constant temperature (22±2° C., air-conditioned) and humidity (45-65%), under optimum hygienic conditions with 10-15 air changes per hour. A cycle of 12 h artificial fluorescent lightning and 12 h darkness is applied and animal behavior is monitored daily throughout the study. The mice receive food and water ad libitum.
# To study the in vivo disposition of molecules of the invention mice are treated once with 6, 7 or commercial Trodelvy® at a dose of 7 mg/kg by intravenous injection. Plasma samples are collected at the following time points: predose, postdose: 2 min, 6 h, 24 h, 48 h, 72 h, 168 h, 240 h, and 380 h. All samples are analyzed using an MS-based analytical method for quantification of the intact immunoconjugates and of the free molecular cargo in the mouse plasma.
# [2] = test system: Trop-2-positive breast cancer cancer cell line; test: Anti-cancer efficacy study in mice, Trop-2-positive cancer model; format: in vivo; settings: single treatment at day 7, 3 mg/kg intravenous
substance,measurement,setting,value
Trodelvy®,intact immunoconjugate in mouse plasma over time,[1],fast and significant loss of intact immunoconjugate
same,tumor growth compared to the vehicle group,[2]; FIG. 4,strong suppression of tumor growth
same,duration of tumor response,"[2]; up to day 57, FIG. 4",tumors significantly start to grow again after day 30
